According to article PMC2263054, “Functional evolution of the vitamin D and pregnane X receptors” (BMC Evolutionary Biology, 2007):
Entries after “also recorded” stand apart in the source; their conditions may differ. Where a name gives a salt, the structure may show the parent alone. Read-outs that look alike come from different tables or passages of the source.

Experiments:
Assay type in all cases: cell-based
Xenopus laevis VDR = biological target: T1, Xenopus laevis VDR (Xenopus laevis, UniProt O13124); assay: luciferase reporter transactivation assay in HepG2-NTCP cells, GAL4/xlVDR LBD chimera with tk-UAS-Luc
T1 sequence (O13124 90-422): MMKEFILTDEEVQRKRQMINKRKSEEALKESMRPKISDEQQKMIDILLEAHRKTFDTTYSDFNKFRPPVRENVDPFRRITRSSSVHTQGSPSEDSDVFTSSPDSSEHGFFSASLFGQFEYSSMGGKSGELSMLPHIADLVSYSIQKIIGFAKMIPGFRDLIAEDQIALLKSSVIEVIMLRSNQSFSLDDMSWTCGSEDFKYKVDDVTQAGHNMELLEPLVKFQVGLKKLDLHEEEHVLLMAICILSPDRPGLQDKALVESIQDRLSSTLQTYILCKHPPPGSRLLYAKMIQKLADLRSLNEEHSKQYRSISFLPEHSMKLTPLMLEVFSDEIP

Zebrafish VDR = biological target: T2, Zebrafish VDR (Danio rerio, UniProt Q9PTN2); assay: luciferase reporter transactivation assay in HepG2-NTCP cells, GAL4/zfVDR LBD chimera with tk-UAS-Luc
T2 sequence (Q9PTN2 121-453): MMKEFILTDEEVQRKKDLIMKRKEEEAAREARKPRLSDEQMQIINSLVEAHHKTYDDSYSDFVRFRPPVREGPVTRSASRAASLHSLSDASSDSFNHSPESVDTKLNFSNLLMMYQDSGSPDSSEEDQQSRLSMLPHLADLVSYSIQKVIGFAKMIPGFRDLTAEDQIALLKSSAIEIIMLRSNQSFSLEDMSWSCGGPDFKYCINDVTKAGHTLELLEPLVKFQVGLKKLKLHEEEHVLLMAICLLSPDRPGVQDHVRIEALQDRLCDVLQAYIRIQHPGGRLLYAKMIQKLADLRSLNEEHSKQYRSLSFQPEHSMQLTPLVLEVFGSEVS

Sea lamprey VDR = biological target: T3, Sea lamprey VDR (Petromyzon marinus, UniProt Q7ZZY9)
T3 sequence (Q7ZZY9 92-406): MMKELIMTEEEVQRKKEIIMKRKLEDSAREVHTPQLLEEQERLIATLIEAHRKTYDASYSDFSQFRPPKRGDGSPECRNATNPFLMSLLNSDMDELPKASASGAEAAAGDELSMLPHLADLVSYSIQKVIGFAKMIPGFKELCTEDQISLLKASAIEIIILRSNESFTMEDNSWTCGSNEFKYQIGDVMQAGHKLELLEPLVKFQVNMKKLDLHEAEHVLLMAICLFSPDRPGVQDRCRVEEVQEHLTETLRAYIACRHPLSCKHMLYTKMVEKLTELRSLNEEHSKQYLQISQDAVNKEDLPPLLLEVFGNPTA

[1] = screening for activators, at least three concentrations of each drug

Row | Molecule | Effect on Xenopus laevis VDR (Xenopus laevis VDR; [1]) | Effect on zebrafish VDR (Zebrafish VDR; [1]) | Effect on sea lamprey VDR (Sea lamprey VDR; [1]) | Effect on Xenopus laevis VDR (Xenopus laevis VDR) | Effect on zebrafish VDR (Zebrafish VDR) | Effect on sea lamprey VDR (Sea lamprey VDR)
1 | O=C(O)Cc1cccc(OCCCN(Cc2cccc(C(F)(F)F)c2Cl)CC(c2ccccc2)c2ccccc2)c1 [GW3965] | None of these three VDRs were activated; also recorded: No effect | None of these three VDRs were activated; also recorded: No effect | None of these three VDRs were activated; also recorded: No effect | – | – | –
2 | C[C@]12CC[C@H](OS(=O)(=O)O)CC1=CC[C@@H]1[C@@H]2CC[C@]2(C)C(=O)CC[C@@H]12 [DHEA sulfate] | No effect | No effect | No effect | – | – | –
3 | COc1c(O)ccc2c1CC[C@@H]1[C@@H]2CC[C@]2(C)C(=O)CC[C@@H]12 [4-Methoxyestrone] | – | – | – | No effect | No effect | No effect
4 | C[C@]12CC[C@@H](O)C[C@H]1CC[C@@H]1[C@@H]2[C@@H](O)C[C@@]2(C)[C@H]1CC[C@]2(O)[C@@H](O)CO [Cortol] | No effect | No effect | No effect | – | – | –
5 | CC(C)=CCC[C@@H](C)[C@H]1CC[C@@]2(C)C3=C(CC[C@]12C)[C@@]1(C)CC[C@H](O)C(C)(C)[C@@H]1CC3 [Lanosterol] | No effect | No effect | No effect | – | – | –
6 | C[C@H](CCC(=O)O)[C@H]1CC[C@H]2[C@@H]3C(=O)C[C@@H]4C[C@H](O)CC[C@]4(C)[C@H]3C[C@H](O)[C@]12C [7-Ketodeoxycholic acid] | No effect | No effect | No effect | – | – | –
7 | CC(C)CCC[C@@H](C)[C@H]1CC[C@H]2[C@@H]3CC[C@H]4C[C@@H](OS(=O)(=O)O)CC[C@]4(C)[C@H]3CC[C@]12C [5a-cholestan-3b-ol sulfate] | No effect | No effect | No effect | – | – | –
8 | C[C@H](O)[C@H]1CC[C@H]2[C@@H]3CC[C@@H]4C[C@H](O[C@@H]5O[C@H](C(=O)O)[C@@H](O)[C@H](O)[C@H]5O)CC[C@]4(C)[C@H]3CC[C@]12C [Pregnanediol glucuronide] | No effect | No effect | No effect | – | – | –
9 | CC(C)(Sc1ccc(CCN(CCCCC2CCCCC2)C(=O)NC2CCCCC2)cc1)C(=O)O [GW 7647] | No effect | No effect | No effect | – | – | –
10 | CC(C)=CCC/C(C)=C/CC/C(C)=C/CC/C(C)=C/CO [Geranygeraniol] | No effect | No effect | No effect | – | – | –
11 | C[C@]12CC[C@@H]3c4ccc(O)cc4CC[C@H]3[C@@H]1[C@@H](O)[C@@H](O)[C@@H]2O [Estetrol] | No effect | No effect | No effect | – | – | –
12 | C[C@H](CCC(=O)O)[C@H]1CC[C@H]2[C@@H]3C[C@@H](O)[C@@H]4C[C@H](O)CC[C@]4(C)[C@H]3CC[C@]12C [5b-Cholanic acid-3a,6b-diol] | No effect | No effect | – | – | – | No effect
13 | C[C@]12CC[C@H](O)C[C@@H]1CC[C@@H]1[C@@H]2CC[C@]2(C)C(=O)CC[C@@H]12 [5a-androstan-3b-ol-17-one] | No effect | No effect | No effect | – | – | –
14 | C[C@H](CCC(=O)O)[C@H]1CC[C@H]2[C@@H]3[C@H](O)C[C@H]4C[C@H](O)CC[C@]4(C)[C@H]3C[C@H](O)[C@]12C [Allocholic acid] | No effect | No effect | No effect | – | – | –
15 | C[C@H](CCC(=O)NCCS(=O)(=O)[O-])[C@H]1CC[C@H]2[C@@H]3C[C@H](O)[C@@H]4C[C@H](O)CC[C@]4(C)[C@H]3CC[C@]12C.[Na+] [Taurohyodeoxycholic acid] | No effect | No effect | No effect | – | – | –
16 | CC(C)c1onc(-c2c(Cl)cccc2Cl)c1COc1ccc(/C=C/c2cccc(C(=O)O)c2)c(Cl)c1 [GW4064] | None of these three VDRs were activated | None of these three VDRs were activated | None of these three VDRs were activated | – | – | –
17 | C#C[C@]1(O)CC[C@H]2[C@@H]3CCC4=CC(=O)CC[C@@H]4[C@H]3CC[C@@]21CC [Levonorgestrol] | No effect | No effect | No effect | – | – | –
18 | CC(C)CCC[C@@H](C)[C@H]1CC[C@H]2C3=CC[C@H]4C[C@@H](O)CC[C@]4(C)[C@H]3CC[C@]12C [Lathosterol] | No effect | No effect | No effect | – | – | –
19 | 4-Pregnen-17,20b-diol-3-one sulfate | No effect | No effect | No effect | – | – | –
20 | C[C@H](CCC(=O)O)[C@H]1CC[C@H]2[C@@H]3[C@H](O)[C@@H](O)[C@@H]4C[C@H](O)CC[C@]4(C)[C@H]3CC[C@]12C [a-Muricholic acid] | No effect | No effect | No effect | – | – | –
21 | CC1=C(/C=C/C(C)=C/C=C/C(C)=C\C(=O)O)C(C)(C)CCC1 [13-cis Retinoic acid] | No effect | No effect | No effect | – | – | –
22 | C[C@H](CCC(=O)NCC(=O)O)[C@H]1CC[C@H]2[C@@H]3CC[C@@H]4C[C@H](O)CC[C@]4(C)[C@H]3C[C@H](O)[C@]12C.O [Glycodeoxycholic acid monohydrate] | No effect | No effect | No effect | – | – | –
23 | C[C@H](CCCO)[C@H]1CC[C@H]2[C@@H]3[C@H](O)C[C@@H]4C[C@H](O)CC[C@]4(C)[C@H]3C[C@H](O)[C@]12C [5b-Cholan-3a,7a,12a,24-tetrol] | No effect | No effect | No effect | – | – | –
24 | CC(=O)[C@H]1CC[C@H]2[C@@H]3CCC4=CC(=O)CC[C@]4(C)[C@H]3CC[C@]12C [Progesterone] | No effect | No effect | No effect | – | – | –
25 | C[C@]12CCC(=O)C[C@@H]1CC[C@@H]1[C@@H]2CC[C@]2(C)[C@@H](O)CC[C@@H]12 [Dihydrotestosterone] | No effect | No effect | No effect | – | – | –
26 | CC(C)(c1ccc(OCC2CO2)cc1)c1ccc(OCC2CO2)cc1 (stereo not drawn) [BADGE] | No effect | No effect | No effect | – | – | –
27 | CC1=C(/C=C/C(C)=C/C=C/C(C)=C/C(=O)O)C(C)(C)CCC1 [All trans retinoic acid] | No effect | No effect | No effect | – | – | –
28 | C[C@]12CC[C@H](O)C[C@@H]1CC[C@@H]1[C@@H]2CC[C@]2(C)C=CC[C@@H]12 [16,(5a)-Androsten-3b-ol] | No effect | No effect | No effect | – | – | –
